The test system of one test is PDGF-R. The test can be described thus: PDGF-R Assay (cellular ELISA, U1242 cells). It is filed as cell-based. Further details: concentration or dose not given beside the values. In outline:
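Cellular ELISA for receptor autophosphorylation: after 2 hr test-compound treatment of serum-free U1242 cells at 37°C, ligand is added for 5–10 min, cells are lysed (HNTG) and receptor captured by specific antibody. Anti-phosphotyrosine plus secondary antibody with ABTS colour read at 410/630 nm, compared with compound-free control cells.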

The target in a further test is T1, EGFR (Homo sapiens, UniProt P00533).
T1 construct: endogenous in cells; host or cells: A431 cells (lysate, captured with SUMO1 anti-EGFR antibody)
Briefly: Biochemical EGFR Assay. Further details: concentration or dose not given beside the values. In outline:
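Readout is ABTS absorbance at 410 nm after anti-phosphotyrosine and HRP-antibody detection of EGFR autophosphorylation. The kinase was immunocaptured from A431 lysate, exposed 30 min to test compound diluted 1:10 in TBS, then phosphorylated for 5 min with ATP/MnCl2 before an EDTA stop.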

T1 sequence (P00533 25-1210): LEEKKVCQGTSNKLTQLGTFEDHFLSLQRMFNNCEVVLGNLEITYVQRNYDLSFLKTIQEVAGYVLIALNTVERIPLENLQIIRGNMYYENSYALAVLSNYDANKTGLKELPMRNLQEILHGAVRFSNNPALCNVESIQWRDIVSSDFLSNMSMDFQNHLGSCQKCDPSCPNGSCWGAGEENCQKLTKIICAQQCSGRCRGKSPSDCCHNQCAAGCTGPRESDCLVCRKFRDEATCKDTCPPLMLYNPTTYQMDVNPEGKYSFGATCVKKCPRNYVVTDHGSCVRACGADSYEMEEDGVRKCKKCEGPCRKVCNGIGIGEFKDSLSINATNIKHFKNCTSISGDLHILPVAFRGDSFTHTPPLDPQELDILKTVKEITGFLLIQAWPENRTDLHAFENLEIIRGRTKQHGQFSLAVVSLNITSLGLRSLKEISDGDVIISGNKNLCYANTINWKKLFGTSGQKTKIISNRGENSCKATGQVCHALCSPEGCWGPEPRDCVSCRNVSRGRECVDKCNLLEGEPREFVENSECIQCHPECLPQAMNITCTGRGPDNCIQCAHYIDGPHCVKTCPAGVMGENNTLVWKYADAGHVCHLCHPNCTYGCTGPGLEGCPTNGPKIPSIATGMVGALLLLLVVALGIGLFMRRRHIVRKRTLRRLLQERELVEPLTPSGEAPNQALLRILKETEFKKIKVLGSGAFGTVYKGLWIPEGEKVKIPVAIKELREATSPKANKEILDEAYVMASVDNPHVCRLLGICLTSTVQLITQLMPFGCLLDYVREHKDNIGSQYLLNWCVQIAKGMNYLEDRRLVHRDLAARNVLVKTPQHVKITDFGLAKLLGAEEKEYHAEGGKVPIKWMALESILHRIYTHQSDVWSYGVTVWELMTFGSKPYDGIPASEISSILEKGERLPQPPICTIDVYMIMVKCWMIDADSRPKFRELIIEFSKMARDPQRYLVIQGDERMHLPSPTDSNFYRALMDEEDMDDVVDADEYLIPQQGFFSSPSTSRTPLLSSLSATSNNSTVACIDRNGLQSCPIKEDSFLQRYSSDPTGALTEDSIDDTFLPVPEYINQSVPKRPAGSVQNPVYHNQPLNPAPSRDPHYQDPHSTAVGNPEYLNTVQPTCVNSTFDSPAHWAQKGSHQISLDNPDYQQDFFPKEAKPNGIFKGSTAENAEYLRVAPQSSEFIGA

With `Cc1ccccc1C=C1C(=O)Nc2ccc(S(=O)(=O)N3CCOCC3)cc21` [10735/F02], the “PDGF Kinase % Inhibition (P.119)” value with PDGF-R is reported as 6.0%. Moreover, the “Biochem EGFR % Inhibition (P.167)” value at EGFR is listed as 19.8%.
Turning to `Cc1c(Br)ccc2c1C(=Cc1ccc(-c3ccccc3)cc1)C(=O)N2` [10735/C11], the “PDGF Kinase % Inhibition (P.119)” value in the test on PDGF-R is recorded as −2.9%. The “Biochem EGFR % Inhibition (P.167)” value on EGFR is −6.4%.
Regarding `O=C1Nc2ccc(S(=O)(=O)N3CCOCC3)cc2C1=Cc1cc(C(F)(F)F)cc(C(F)(F)F)c1` [10735/F06], in the test with PDGF-R, the “PDGF Kinase % Inhibition (P.119)” value is 20.9%. For the same compound, on EGFR, the “Biochem EGFR % Inhibition (P.167)” value is 13.0%.
For the compound `O=C1Nc2ccc(I)cc2C1=Cc1ccc(-c2ccccc2)cc1` [10735/B11], in the test with PDGF-R, the “PDGF Kinase % Inhibition (P.119)” value was −8.8%. For the same compound, at EGFR, the “Biochem EGFR % Inhibition (P.167)” value is 52.4%.
As for `O=C1Nc2ccc(S(=O)(=O)N3CCOCC3)cc2C1=Cc1ccc(Cl)cc1Cl` [10735/F10], in the test on PDGF-R, the “PDGF Kinase % Inhibition (P.119)” value is listed as 13.3%. The “Biochem EGFR % Inhibition (P.167)” value on EGFR is 15.7%.
In the same order, the values of `O=C1Nc2c(Br)cc(Br)cc2C1=Cc1c(F)cccc1F` [10735/A08] are 5.3% and 10.9%.
The matching figures for `Cc1ccccc1C=C1C(=O)Nc2ccc(CCCl)cc21` [10735/G02]: 7.1% and 23.7%.
As for `Cc1c(Br)cc(Br)c2c1C(=Cc1ccc([N+](=O)[O-])cc1)C(=O)N2` [10734/H06], the “PDGF Kinase % Inhibition (P.119)” value in the test on PDGF-R is reported as −26.3%. Further, on EGFR, the “Biochem EGFR % Inhibition (P.167)” value is on record as −32.2%.
Take `N#Cc1ccccc1C=C1C(=O)Nc2ccc(I)cc21` [10735/B07]: the “PDGF Kinase % Inhibition (P.119)” value in the test with PDGF-R amounted to 0.5%. For the same compound, the “Biochem EGFR % Inhibition (P.167)” value at EGFR is 47.7%.
In the same order, the values of `O=C1Nc2ccc(S(=O)(=O)Nc3ccc(C(F)(F)F)cc3)cc2C1=Cc1ccc(F)c(F)c1` [10735/E03] are 16.0% and 18.9%.
Turning to `O=C1Nc2ccc(CCCl)cc2C1=Cc1cc(F)cc(F)c1` [10735/G04], the “PDGF Kinase % Inhibition (P.119)” value in the test with PDGF-R is given as 11.6%. Further, the “Biochem EGFR % Inhibition (P.167)” value on EGFR was found to be 22.8%.
As to `O=C1Nc2ccc(S(=O)(=O)Nc3ccc(C(F)(F)F)cc3)cc2C1=Cc1cccc2ccccc12` [10735/E09], the “PDGF Kinase % Inhibition (P.119)” value in the test on PDGF-R was 37.1%. Moreover, the “Biochem EGFR % Inhibition (P.167)” value at EGFR is −3.9%.
Take `N#Cc1ccccc1C=C1C(=O)Nc2ccc(S(=O)(=O)N3CCOCC3)cc21` [10735/F07]: the “PDGF Kinase % Inhibition (P.119)” value in the test with PDGF-R is 19.2%. At EGFR, the “Biochem EGFR % Inhibition (P.167)” value is on record as 28.9%.
In the same order, the values of `CNS(=O)(=O)c1ccc2c(c1)C(=Cc1ccccc1C)C(=O)N2` [10735/D02] are 11.6% and 20.3%.
For `CNS(=O)(=O)c1ccc2c(c1)C(=Cc1ccc(-c3ccccc3)cc1)C(=O)N2` [10735/D11], the “PDGF Kinase % Inhibition (P.119)” value in the test with PDGF-R is reported as 0.5%. Further, the “Biochem EGFR % Inhibition (P.167)” value at EGFR is on record as −16.5%.
Consider `Cc1c(Br)cc(Br)c2c1C(=Cc1ccc(O)c(Br)c1)C(=O)N2` [10734/H09], for which the “PDGF Kinase % Inhibition (P.119)” value with PDGF-R is listed as −19.2%. Moreover, the “Biochem EGFR % Inhibition (P.167)” value on EGFR is on record as −4.2%.
With `CNS(=O)(=O)c1ccc2c(c1)C(=Cc1ccc(Cl)cc1Cl)C(=O)N2` [10735/D10], the “PDGF Kinase % Inhibition (P.119)” value in the test with PDGF-R worked out at 3.3%. Further, the “Biochem EGFR % Inhibition (P.167)” value on EGFR is reported as 46.5%.
`Cc1c(Br)cc(Br)c2c1C(=Cc1ccc(C(C)(C)C)cc1)C(=O)N2` [10734/H10]: the “PDGF Kinase % Inhibition (P.119)” value with PDGF-R was −17.9%. Moreover, at EGFR, the “Biochem EGFR % Inhibition (P.167)” value is on record as −12.6%.
With `O=C1Nc2ccc(S(=O)(=O)N3CCOCC3)cc2C1=Cc1cccc2ccccc12` [10735/F09], the “PDGF Kinase % Inhibition (P.119)” value in the test with PDGF-R was 19.8%. The “Biochem EGFR % Inhibition (P.167)” value on EGFR was 0.0%.
As for `O=C1Nc2c(Br)cc(Br)cc2C1=Cc1ccc(Cl)cc1Cl` [10735/A10], the “PDGF Kinase % Inhibition (P.119)” value with PDGF-R was −0.2%. The “Biochem EGFR % Inhibition (P.167)” value on EGFR was 10.2%.
Turning to `Cc1ccccc1C=C1C(=O)Nc2ccc(Br)c(C)c21` [10735/C02], in the test with PDGF-R, the “PDGF Kinase % Inhibition (P.119)” value is on record as 4.7%. In addition, the “Biochem EGFR % Inhibition (P.167)” value on EGFR stood at 1.6%.
With `Cc1c(Br)cc(Br)c2c1C(=Cc1ccc(Br)s1)C(=O)N2` [10734/H11], in the test with PDGF-R, the “PDGF Kinase % Inhibition (P.119)” value was −17.9%. Further, the “Biochem EGFR % Inhibition (P.167)” value on EGFR is −8.5%.
Consider `O=C1Nc2ccc(S(=O)(=O)Nc3ccc(C(F)(F)F)cc3)cc2C1=Cc1ccc(-c2ccccc2)cc1` [10735/E11], for which, in the test with PDGF-R, the “PDGF Kinase % Inhibition (P.119)” value turned out to be 11.9%. The “Biochem EGFR % Inhibition (P.167)” value at EGFR came to 10.1%.
`O=C1Nc2ccc(S(=O)(=O)Nc3ccc(C(F)(F)F)cc3)cc2C1=Cc1cc(F)cc(F)c1` [10735/E04]: the “PDGF Kinase % Inhibition (P.119)” value in the test on PDGF-R was 91.6%. On EGFR, the “Biochem EGFR % Inhibition (P.167)” value is on record as 14.3%.
Regarding `Cc1c(Br)ccc2c1C(=Cc1ccccc1C#N)C(=O)N2` [10735/C07], the “PDGF Kinase % Inhibition (P.119)” value in the test with PDGF-R is listed as 11.9%. On EGFR, the “Biochem EGFR % Inhibition (P.167)” value is reported as −4.9%.
For the compound `Cc1c(Br)ccc2c1C(=Cc1c(F)cccc1F)C(=O)N2` [10735/C08], the “PDGF Kinase % Inhibition (P.119)” value in the test on PDGF-R is −2.6%. Besides, the “Biochem EGFR % Inhibition (P.167)” value on EGFR is −11.3%.
In the case of `O=C1Nc2ccc(I)cc2C1=Cc1cccc(C(F)(F)F)c1` [10735/B05], in the test on PDGF-R, the “PDGF Kinase % Inhibition (P.119)” value came out at 17.4%. Besides, at EGFR, the “Biochem EGFR % Inhibition (P.167)” value amounted to 61.6%.
For `Cc1c(Br)ccc2c1C(=Cc1ccc(F)c(F)c1)C(=O)N2` [10735/C03], the “PDGF Kinase % Inhibition (P.119)” value with PDGF-R is reported as 4.3%. Moreover, the “Biochem EGFR % Inhibition (P.167)” value on EGFR came to 8.0%.
In the case of `O=C1Nc2ccc(CCCl)cc2C1=Cc1ccc(F)c(F)c1` [10735/G03], in the test with PDGF-R, the “PDGF Kinase % Inhibition (P.119)” value came out at 6.4%. Moreover, the “Biochem EGFR % Inhibition (P.167)” value on EGFR is reported as 30.3%.

(Values after patent US20020026053A1, “Novel 3-(substituted) -2- indolinones compounds and use thereof as inhibitors of protein kinase activity” (priority 1997, published 2002).)
